From patent publication US20120094295A1, “NEURODEGENERATIVE DISEASE DIAGNOSTIC COMPOSITIONS AND METHODS OF USE” (The Johns Hopkins University, priority 2008, published 2012)
Read-outs that look alike come from different tables or passages of the source.

Key:
EAAT2/GLT-1 = EAAT2/GLT-1 gene expression in nasal olfactory epithelium; conditions: in vivo
[1] = human, in vivo
[2] = tested on: primary mouse cultures of neurons and astrocytes; test: Oxygen-glucose deprivation (OGD) assay, neuronal cell death by LDH release; assay type: cell-based; conditions: 72 hours treatment, then oxygen-glucose deprivation 1.5 hours
Method: (§1) FIG. 3A is a graph showing EAAT2 promoter activation. EAAT2 promoter activation was examined by measuring luciferase activity using a reporter gene construct driven by a 2.5 kB promoter fragment of EAAT2 (Rothstein et al., Nature. 2005 Jan. 6; 433(7021):73-7). […] Glutamate-uptake was measured using standard techniques. […] Cells were then exposed to an oxygen-glucose-free environment for 1.5 hours (Goldberg et al). After the oxygen-glucose deprivation, cells were washed back into normal artificial cerebral spinal fluid (ACSF) solution and maintained for another 23 hours at 37 C, 5% CO2. Neuronal cell death was determined by measuring […] (LDH) release. Cells treated with MK-801, 6-cyano-7-nitroquinoxaline-2,3-dione), (CNQX) and nimodipine (MCN) were used as a positive control for neuroprotective activity.

[3] = Human plasma pharmacokinetics of thiamphenicol in healthy volunteers; assay type: in vivo; conditions: for AUC / Cmax / half-life / Tmax: human, plasma, po
GFAP mRNA = test: qPCR of nasal biopsy samples before and after drug treatment; assay type: in vivo, human; conditions: healthy volunteers, 750 or 1500 mg once a day oral, day 14 vs day -1
Method: (§2) Nasal biopsies were performed the day before the beginning of drug treatment (day −1) and on day 14. mRNA levels of several genes were quantified by qPCR analysis. Data are presented as fold increases in mRNA levels after drug treatment for each individual patient.
(§3) Nasal biopsies were taken on day −1 (before drug treatment) and day 14. […] In addition to EAAT2, the mRNA levels of the following genes were measured: GFAP (astrocytic expression in CNS), EAAT1 (astrocytic expression in CNS, expressed in precursor neuronal cells in olfactory epithelium), OMP (neuronal expression in olfactory epithelium and CNS), and MCT-4. […] The intra-patient variability was obtained by comparing mRNA levels obtained from the left and right side of the nose of each volunteer. This was important since the drug study was designed to obtain a biopsy from one side of the nose before drug treatment and from the opposite side of the nose after drug treatment. This allowed each person to serve as their own control and provided an opportunity to follow changes in mRNA levels within individuals.
(§4) Human nasal biopsies were performed by otolaryngologists specializing in sinus surgery. […] Local anesthesia was used for the procedure. Local anesthesia was applied to the nasal cavity. Lidocaine liquid 4% (Xylocaine®) and oxymetazoline HCl 0.05% (Afrin®) was sprayed in the nose. Then, if needed, 1% lidocaine with 1/100,000 epinephrine was injected to provide both anesthesia and vasoconstriction.
(§5) The procedure was performed under endoscopic control and used either a small curette or biting forceps for tissue removal. To avoid trauma to the cribriform plate, the biopsies were usually taken from the upper nasal septum. […] The tissue was removed from either the front or the back of the olfactory cleft, and sometimes both. Up to two blocks of tissue (approximately 2 mm each) were collected from each side of the nose. […] Subjects were instructed not to blow their nose and not to perform any strenuous physical activity for 24 hours after the procedure.
(§6) Healthy volunteers underwent a nasal biopsy on day −1 on one side of the nose only. R UX122 was administered in 3 groups (placebo, 750 mg/day, 1500 mg/day) starting day 1 to day 14. Blood samples were taken throughout the trial period to obtain basic pharmacokinetic analyses as well as to monitor for safety and tolerability. […] On day 14, a nasal biopsy was done on the other side of the nose.
(§7) Total RNA was reversed transcribed using Applied Biosystems' high capacity cDNA archive kit. The quantitative real time RT-PCR assay was performed using the iCycler iQ Real-Time Detection System from BioRad. TaqMan Probes, which allow for specific mRNA amplification, were purchased from Applied Biosystems.

OMP mRNA = test: as above; assay type: in vivo, human; conditions: healthy volunteers, 750 or 1500 mg once a day oral, day 14 vs day -1
Method: as §2, §3, §4, §5, §6, §7

EAAT1 mRNA = test: as above; assay type: in vivo, human; conditions: healthy volunteers, 750 or 1500 mg once a day oral, day 14 vs day -1
Method: as §2, §3, §4, §5, §6, §7

MCT-4 mRNA = test: as above; assay type: in vivo, human; conditions: healthy volunteers, 750 or 1500 mg once a day oral, day 14 vs day -1
Method: as §2, §3, §4, §5, §6, §7

EAAT2/GLT-1 mRNA = test: as above; assay type: in vivo, human; conditions: healthy volunteers, 750 or 1500 mg once a day oral, day 14 vs day -1
Method: as §2, §3, §4, §5, §6, §7

[4] = tested on: glutamate transporter EAAT2/GLT-1; test: Glutamate transporter function in vitro and in vivo
[5] = Safety and tolerability in healthy volunteers; assay type: in vivo, human; conditions: 750 or 1500 mg once a day oral, 14 days
Method: Thirty-four normal volunteers were divided into three groups: placebo (N=6), TAP 750 mg administered orally once a day (N=12) and TAP 1500 mg administered orally once a day (N=12). Nasal biopsies were taken on day −1 (before drug treatment) and day 14. Plasma pharmacokinetics were done on day 1 and 13 and cerebrospinal fluid samples were taken on day 13 to study the levels of TAP in the brain.
R UX122 was administered in 3 groups (placebo, 750 mg/day, 1500 mg/day) starting day 1 to day 14. Blood samples were taken throughout the trial period to obtain basic pharmacokinetic analyses as well as to monitor for safety and tolerability. Every patient underwent a spinal tap to collect CSF on day 13.

glutamate uptake = test: Glutamate uptake in primary cultures of neurons and astrocytes; assay type: cell-based; conditions: primary mouse cultures of neurons and astrocytes, 72 hours
Method: as §1

GLT-1 mRNA = GLT-1 mRNA in treated wild-type mice; assay type: in vivo, mouse; conditions: WT mice, 12.5 or 25 mg/kg/day oral, 10 days
Method: as §7

EAAT2 promoter = EAAT2 promoter luciferase reporter gene assay in immortalized astrocytes; assay type: cell-based, human; conditions: luciferase reporter driven by 2.5 kB EAAT2 promoter fragment, 72 hours
Method: as §1

Structure (SMILES): CS(=O)(=O)c1ccc([C@@H](O)[C@@H](CO)NC(=O)C(Cl)Cl)cc1 [TAP, thiamphenicol]
- EAAT2/GLT-1 gene expression in nasal olfactory epithelium (EAAT2/GLT-1): increased EAAT2/GLT-1 gene expression in nasal olfactory epithelium
- correlation between plasma concentrations and CSF levels [1]: linear correlation
- neuroprotection (neuronal cell death, LDH release) [2]: dose-dependent neuroprotection
- plasma concentrations versus dose ([3]; 750 and 1500 mg/day oral): dose-related plasma concentrations
- drug accumulation ([3]; 14 days once daily oral): no drug accumulation
- AUC ([3]; 750 mg/day, oral 750 mg/day, Day 1): 42600 ng·h/mL
- Cmax ([3]; 750 mg/day, oral 750 mg/day, Day 1, plasma): 6310 ng/mL
- half-life ([3]; 750 mg/day, oral 750 mg/day, Day 1, read-out: T ½ (converted)): 4.1 ± 0.8 h
- Tmax ([3]; 750 mg/day, oral 750 mg/day, Day 1, read-out: Tmax median(range)): 2 h
- AUC ([3]; 750 mg/day, oral 750 mg/day, Day 13): 51100 ng·h/mL
- Cmax ([3]; 750 mg/day, oral 750 mg/day, Day 13, plasma): 6550 ng/mL
- half-life ([3]; 750 mg/day, oral 750 mg/day, Day 13, read-out: T ½ (converted)): 4.8 ± 0.6 h
- Tmax ([3]; 750 mg/day, oral 750 mg/day, Day 13, read-out: Tmax median(range)): 2 h
- AUC ([3]; 1500 mg/day, oral 1500 mg/day, Day 1): 88000 ng·h/mL
- Cmax ([3]; 1500 mg/day, oral 1500 mg/day, Day 1, plasma): 10700 ng/mL
- half-life ([3]; 1500 mg/day, oral 1500 mg/day, Day 1, read-out: T ½ (converted)): 4.2 ± 0.5 h
- Tmax ([3]; 1500 mg/day, oral 1500 mg/day, Day 1, read-out: Tmax median(range)): 2.5 h
- AUC ([3]; 1500 mg/day, oral 1500 mg/day, Day 13): 96700 ng·h/mL
- Cmax ([3]; 1500 mg/day, oral 1500 mg/day, Day 13, plasma): 11000 ng/mL
- half-life ([3]; 1500 mg/day, oral 1500 mg/day, Day 13, read-out: T ½ (converted)): 5.7 ± 1 h
- Tmax ([3]; 1500 mg/day, oral 1500 mg/day, Day 13, read-out: Tmax median(range)): 2 h
- half-life ([3]; 750 and 1500 mg/day oral, read-out: average half life): 4 to 6 h
- GFAP mRNA levels in olfactory epithelium after drug treatment (GFAP mRNA): dose-dependent positive trend towards an increase in mRNA levels
- GFAP mRNA levels in olfactory epithelium after drug treatment (GFAP mRNA; listed as thiamphenicol): positive trend towards increased gene expression levels
- OMP mRNA levels in olfactory epithelium after drug treatment (OMP mRNA): no difference in mRNA levels
- OMP mRNA levels in olfactory epithelium after drug treatment (OMP mRNA; listed as thiamphenicol): no change in gene expression levels
- EAAT1 mRNA levels in olfactory epithelium after drug treatment (EAAT1 mRNA): no difference in mRNA levels
- EAAT1 mRNA levels in olfactory epithelium after drug treatment (EAAT1 mRNA; listed as thiamphenicol): no change in gene expression levels
- MCT-4 mRNA levels in olfactory epithelium after drug treatment (MCT-4 mRNA): no difference in mRNA levels
- MCT-4 mRNA levels in olfactory epithelium after drug treatment (MCT-4 mRNA; listed as thiamphenicol): no change in gene expression levels
- EAAT2/GLT-1 mRNA levels in olfactory epithelium after drug treatment (EAAT2/GLT-1 mRNA): dose-dependent positive trend towards an increase in mRNA levels
- EAAT2/GLT-1 mRNA levels in olfactory epithelium after drug treatment (EAAT2/GLT-1 mRNA; listed as thiamphenicol): positive trend towards increased gene expression levels
- glutamate transporter function [4]: increased transporter function in vitro and in vivo
- serious adverse side-effects [5]: no serious adverse side-effects were reported
- tolerability [5]: well tolerated at every dose
- glutamate uptake (glutamate uptake): dose-dependently increased glutamate uptake
- GLT-1 mRNA (GLT-1 mRNA): dose-dependently increased
- EAAT2 promoter activation (EAAT2 promoter): activated the transporter on a promoter level

Structure (SMILES): CO/N=C(\C(=O)N[C@@H]1C(=O)N2C(C(=O)O)=C(CSc3nc(=O)c(=O)[nH]n3C)CS[C@H]12)c1csc(N)n1 [ceftriaxone]
- EAAT2/GLT-1 gene expression in nasal olfactory epithelium (EAAT2/GLT-1): increased EAAT2/GLT-1 gene expression in nasal olfactory epithelium
- glutamate transporter function [4]: increased transporter function in vitro and in vivo
- EAAT2 promoter activation (EAAT2 promoter): activated the transporter on a promoter level
